Legend:
opioid receptors = settings: Wikler, A., Int. J. of the Addictions 12(7) 869, 1977; cited from earlier work
[1] = Adverse effects by clinical examination, blood and urine analysis in Examples I and II; assay type: in vivo, human
Text: Samples of the patient's blood and urine were collected each day and subjected to analysis.

chronic constipation [2] = assay: Example I: stool weight of a patient with chronic constipation given naloxone (single blind, placebo first); assay type: in vivo, human
Experimental: A person with a history of chronic constipation for a period of over twenty years, requiring daily use of large doses of laxatives plus frequent enemas, was admitted to the research hospital on day one at approximately 4:00 p.m. They were given a standard laxative regimen documented to be inadequate to effect a spontaneous bowel movement, and placed on a high residue diet.
During the first 24 hours they were treated with a placebo (Infusion A) according to the following schedule:
The total dosage per day was 21.6 mg.
During the five days that the patient was under hospital care the stools were collected and weighed. The results were as follows:
The experiment was conducted as a single blind. The patient was not aware of whether they were receiving a placebo or the active agent.

chronic constipation [3] = assay: Example II: stool weight of a second patient with chronic constipation given naloxone; assay type: in vivo, human
Text: A second patient with a history of over twenty years of chronic constipation, intractable to laxatives, who for the past several months was only relieved by enema treatment was admitted to the hospital and placed on a high residue diet.

chronic constipation [4] = assay: Table 1: five inpatient and outpatient studies on Patient Number 1 (chronic constipation): fecal weight, fecal fat, symptoms; assay type: in vivo, human
Text: The tables set forth the significant details and results of a number of studies conducted with different patients suffering from various forms of intestinal dysmotility. […] The first study was of two days duration. The lengths of subsequent studies are as indicated.
The reports Tables 1 to 5 are for patients with chronic constipation. Those in Tables 6, 7 and 8 are for patients with irritable bowel syndrome.

[5] = Day 2, naloxone intravenous (29.2 mg per Table 1)
[6] = Day 3, naloxone oral 21.6 mg per day
[7] = Day 4, naloxone oral 21.6 mg per day
[8] = Day 5, naloxone oral 21.6 mg per day
[9] = Day 1, 29.2 mg naloxone, intravenous
[10] = Patient Number 1, Study #1 (inpatient), i.v., Study Day 2, total 24 hour dose 29.2 mg
[11] = Patient Number 1, Study #2 (inpatient), p.o., Study Day 1, total 24 hour dose 21.6 mg
[12] = Patient Number 1, Study #2 (inpatient), p.o., Study Day 2, total 24 hour dose 21.6 mg
[13] = Patient Number 1, Study #2 (inpatient), p.o., Study Day 3, total 24 hour dose 21.6 mg

SMILES: O=C1CC[C@@]2(O)[C@H]3Cc4ccc(O)c5c4[C@@]2(CCN3CC2CC2)[C@H]1O5 [Naltrexone, N-cyclopropylmethyl-14-hydroxydihydronormorphinone]
- agonistic activity (opioid receptors): slight agonistic activity

SMILES: C=CCN1CC[C@]23c4c5ccc(O)c4O[C@H]2C(=O)CC[C@@]3(O)[C@H]1C5 [naloxone, N-allyl-14-hydroxydihydronormorphinone]
- adverse effects (analysis of blood and urine collected each day) ([1]; Example I patient, naloxone intravenous then oral 21.6 mg per day): No adverse effects
- adverse effects (clinical examinations, blood or urine analysis) ([1]; Example II patient, naloxone 29.2 mg intravenous, then 7.2 to 21.6 mg oral): No adverse effects
- STOOL WEIGHT GRAMS Wet Weight (chronic constipation [2]; [5]): 649 Grams
- Stool Weight Grams Dry Weight (chronic constipation [2]; [5]): 52 Grams
- STOOL WEIGHT GRAMS Wet Weight (chronic constipation [2]; [6]): 985 Grams
- Stool Weight Grams Dry Weight (chronic constipation [2]; [6]): 77 Grams
- STOOL WEIGHT GRAMS Wet Weight (chronic constipation [2]; [7]): 997 Grams
- Stool Weight Grams Dry Weight (chronic constipation [2]; [7]): 77 Grams
- STOOL WEIGHT GRAMS Wet Weight (chronic constipation [2]; [8]): 806 Grams
- Stool Weight Grams Dry Weight (chronic constipation [2]; [8]): 65 Grams
- STOOL WEIGHT GRAMS Wet Weight (chronic constipation [3]; [9]): 84 GRAMS
- Stool Weight Grams Dry Weight (chronic constipation [3]; [9]): 18.5 GRAMS
- STOOL WEIGHT GRAMS Wet Weight (chronic constipation [3]; Day 3, 14.4 mg naloxone, oral): 35 GRAMS
- Stool Weight Grams Dry Weight (chronic constipation [3]; Day 3, 14.4 mg naloxone, oral): 8.2 GRAMS
- STOOL WEIGHT GRAMS Wet Weight (chronic constipation [3]; Day 4, 21.6 mg naloxone, oral): 125 GRAMS
- Stool Weight Grams Dry Weight (chronic constipation [3]; Day 4, 21.6 mg naloxone, oral): 66.4 GRAMS
- STOOL WEIGHT GRAMS Wet Weight (chronic constipation [3]; Day 5, 21.6 mg naloxone, oral): 230 GRAMS
- Stool Weight Grams Dry Weight (chronic constipation [3]; Day 5, 21.6 mg naloxone, oral): 82.4 GRAMS
- STOOL WEIGHT GRAMS Wet Weight (chronic constipation [3]; Day 6, 7.2 mg naloxone, oral): 34 GRAMS
- Fecal Dry Wt. (gm) (chronic constipation [4]; [10]): 52 gm
- Fecal Wet Wt. (gm) (chronic constipation [4]; [10]): 649 gm
- Symptoms, Signs, Comments (chronic constipation [4]; [10]): Marked improvement
- Fecal Dry Wt. (gm) (chronic constipation [4]; [11]): 77 gm
- Fecal Wet Wt. (gm) (chronic constipation [4]; [11]): 985 gm
- Symptoms, Signs, Comments (chronic constipation [4]; [11]): Marked improvement
- Fecal Dry Wt. (gm) (chronic constipation [4]; [12]): 77 gm
- Fecal Wet Wt. (gm) (chronic constipation [4]; [12]): 997 gm
- Symptoms, Signs, Comments (chronic constipation [4]; [12]): Marked improvement
- Fecal Dry Wt. (gm) (chronic constipation [4]; [13]): 65 gm
- Fecal Wet Wt. (gm) (chronic constipation [4]; [13]): 806 gm
- Symptoms, Signs, Comments (chronic constipation [4]; [13]): Marked improvement
- Symptoms, Signs, Comments (chronic constipation [4]; Patient Number 1, Study #3 (outpatient), p.o., Study Day 1, total 24 hour dose 21.6 mg): Average day
- Symptoms, Signs, Comments (chronic constipation [4]; Patient Number 1, Study #3 (outpatient), p.o., Study Day 2, total 24 hour dose 21.6 mg): Better than average day
- Symptoms, Signs, Comments (chronic constipation [4]; Patient Number 1, Study #3 (outpatient), p.o., Study Day 3, total 24 hour dose 21.6 mg): Much better than average day
- Fecal Wet Wt. (gm) (chronic constipation [4]; Patient Number 1, Study #4 (inpatient), i.v., Study Day 2, total 24 hour dose 29.2 mg): 775 gm
- Fecal Wet Wt. (gm) (chronic constipation [4]; Patient Number 1, Study #4 (inpatient), i.v., Study Day 3, total 24 hour dose 29.2 mg): 859 gm
- Symptoms, Signs, Comments (chronic constipation [4]; Patient Number 1, Study #5 (outpatient), route not given, Study Day 1, total 24 hour dose 21.6 mg): Much better than average
- Symptoms, Signs, Comments (chronic constipation [4]; Patient Number 1, Study #5 (outpatient), route not given, Study Day 2, total 24 hour dose 21.6 mg): Much better than average
- Symptoms, Signs, Comments (chronic constipation [4]; Patient Number 1, Study #5 (outpatient), route not given, Study Day 3, total 24 hour dose 21.6 mg): Much better than average

Source: patent EP0103636B1, “USE OF OPIUM ANTAGONISTS FOR THE MANUFACTURE OF MEDICAMENTS FOR CONTROLLING GASTROINTESTINAL DYSMOTILITY” (ROCKEFELLER UNIVERSITY, priority 1982, dated 1983)
